Paper PMC8915624 (Antiviral Research, 2022)
Like-named read-outs stand apart in the source and are kept apart here.

Columns and labels:
SARS-CoV-2 [1] = assay type: cell-based; settings: Vero-E6/SARS-CoV-2; MOI 0.1, 72 hpi, real-time RT-PCR
HCoV-OC43 [2] = assay type: cell-based; settings: Vero-E6/OC43; MOI 0.1, 72 hpi, real-time RT-PCR
HCoV-OC43 [3] = assay type: cell-based; settings: for IC50: MRC-5/OC43, MOI 0.1, 72 hpi, viral genome copies by real-time RT-PCR; for relative viral genome copy number in cell lysates and supernatants: 20 μM
Vero-E6 cells = experiment: Cell viability assay; assay type: cell-based, African green monkey; settings: MTT, 72 h
SARS-CoV-2 [4] = assay type: cell-based
MRC-5 cells = experiment: Cell viability assay; assay type: cell-based, Human; settings: for CC50: MRC-5 cells, MTT, 72 h
SARS-CoV-2 NP protein = assay type: cell-based
HCoV-OC43 NP = assay type: cell-based; settings: MRC-5, MOI 1; 20 μM
HCoV-OC43 [5] = assay type: cell-based; settings: MRC-5, 72 hpi; 20 μM

Compound	IC50 (SARS-CoV-2 [1]) [µM]	IC50 (HCoV-OC43 [2]) [µM]	intra- and extra-cellular viral genome copy numbers (HCoV-OC43 [3]; MRC-5, MOI 0.1, Cl-A 100 μM, BB-Cl 2.5 μM)	IC50 (HCoV-OC43 [3]) [µM]	CC50 (Vero-E6 cells) [µM]	reduction in SARS-CoV-2 yield (plaque assay) (SARS-CoV-2 [4]) [log]	CC50 (MRC-5 cells) [µM]	reduction of SARS-CoV-2 NP protein expression (SARS-CoV-2 NP protein) [%]	inhibition of HCoV-OC43 replication rate (maximum within the range of concentrations tested) (HCoV-OC43 [3]; MRC-5, MOI 0.1, 72 hpi) [%]	relative viral genome copy number in cell lysates and supernatants (HCoV-OC43 [3]; MRC-5, MOI 0.1)	OC43 NP protein expression levels (Western blot) (HCoV-OC43 NP)	reduction of the viral titer (plaque assay) (HCoV-OC43 [5])	viral replication (viral genome production) (HCoV-OC43 [3]; MRC-5, 20 μM)	cell viability (MRC-5 cells; MRC-5, 20 μM)
NC(=O)[C@H](CCCN=C(N)CCl)NC(=O)c1ccccc1 [Cl-amidine]	95.2	44.1	drastically reduced	34.8	> 1000	1	949	~50						
AFM30a				> 20			321		≤ 40	much less pronounced reduction	slight decrease	barely detectable		
GSK199				0.6			133			drastically reduced	dramatic downregulation	~2 log	complete blockade of viral replication	viable
